Measured values from US20250326713A1, “INHIBITORS OF MsbA AS ANTIBIOTICS, PHARMACEUTICAL COMPOSITIONS, AND USES THEREOF” (priority 2022, published 2025).
Converted amounts (≈) assume the structure as drawn.

System: various strains of bacteria
Experiment: Antimicrobial potency: bacterial growth inhibition by OD600 (Antibacterial assay 1, MITC95)
Assay type: cell-based, A. baumannii
Conditions: Acinetobacter baumannii, 20 h, lowest concentration giving >95% growth inhibition, CAMHB, 18-22 h
Procedure: The concentrations of compounds required to inhibit the growth of various strains of bacteria were determined in an assay that assessed bacterial growth by measuring optical density at 600 nm (OD600). Test articles were dissolved in 100% DMSO and serially diluted two-fold from their maximal concentration in 100% DMSO. Forty-nine μl of bacterial inoculum (at approx. 2×10^5 cfu/mL in CAMHB) were put into wells of an assay plate. One μl of compound or DMSO was transferred from the source plate to the assay plate. The completed assay plates were then incubated at 35+2degC for 18-22 h. Bacterial growth was measured by reading OD600 on a spectrophotometer. Data analysis calculates the lowest concentration of compound which results in >95% growth inhibition (minimum inhibitory threshold concentration 95%, MITC95).

SMILES | MIC
O=C(O)c1cc(CN2CC(Oc3ccc(NS(=O)(=O)c4cnn(-c5ccc(Cl)cn5)c4)c(C(=O)O)c3)C2)ccc1NS(=O)(=O)c1cnn(-c2ccc(Cl)cn2)c1 [Compound 121] | 0.277 µM (≈ 0.233 µg/mL)
CC1(Oc2ccc(NS(=O)(=O)N3CCOC(c4ccc(Cl)cc4)C3)c(C(=O)O)c2)CN(Cc2ccc(NS(=O)(=O)N3CCOC(c4ccc(Cl)cc4)C3)c(C(=O)O)c2)C1 (stereo not shown) [Compound 46] | 0.391 µM (≈ 0.348 µg/mL)
O=C(O)c1cc(OCC2CCC(COc3ccc(NS(=O)(=O)c4cnn(-c5ccc(Cl)cc5)c4)c(C(=O)O)c3)O2)ccc1NS(=O)(=O)c1cnn(-c2ccc(Cl)cc2)c1 (stereo not shown) [Compound 19, 5-((5-((3-Carboxy-4-((1-(4-chlorophenyl)-1H-pyrazole)-4-sulfonamido)-phenoxy)methyl)tetrahydrofuran-2-yl)methoxy)-2-((1-(4-chlorophenyl)-1H-pyrazole)-4-sulfonamido)benzoic acid] | 0.0245 µM (≈ 0.0217 µg/mL)
O=C(CCCCCc1ccccc1)Nc1ccc(OC2CN(Cc3ccc(NS(=O)(=O)c4cnn(-c5ccc(Cl)cc5)c4)c(C(=O)O)c3)C2)cc1C(=O)O [Compound 66] | 0.0489 µM (≈ 0.0378 µg/mL)
O=C(O)c1cc(OC[C@H]2C[C@H](Oc3ccc(NS(=O)(=O)c4cnn(-c5ccc(Cl)cc5)c4)c(C(=O)O)c3)CN2)ccc1NS(=O)(=O)c1cnn(-c2ccc(Cl)cc2)c1 [Compound 24, trans-5-((5-((3-carboxy-4-((1-(4-chlorophenyl)-1H-pyrazole)-4-sulfonamido)-phenoxy)methyl)pyrrolidin-3-yl)oxy)-2-((1-(4-chlorophenyl)-1H-pyrazole)-4-sulfonamido)benzoic acid] | 0.277 µM (≈ 0.241 µg/mL)
O=C(NCc1ccc(Cl)cc1)C(=O)Nc1ccc(OC2CN(Cc3ccc(NS(=O)(=O)c4cnn(-c5ccc(Cl)cc5)c4)c(C(=O)O)c3)C2)cc1C(=O)O [Compound 58] | 0.0245 µM (≈ 0.0194 µg/mL)
O=C(O)c1cc(COC2CC(OCc3ccc(NS(=O)(=O)c4ccc(-c5ccc(F)cc5)cc4)c(C(=O)O)c3)C2)ccc1NS(=O)(=O)c1ccc(-c2ccc(F)cc2)cc1 (stereo not shown) [Compound 14] | 0.0245 µM (≈ 0.0209 µg/mL)
O=C(O)c1cc(CN2CC(Oc3ccc(NS(=O)(=O)c4ccc(-c5ccc(Cl)cc5)cc4)c(C(=O)O)c3)C2)ccc1NS(=O)(=O)c1ccc(Oc2ccccc2)nc1 [Compound 105] | 0.0245 µM (≈ 0.0206 µg/mL)
O=C(O)c1cc(CN2CC(Oc3ccc(NS(=O)(=O)c4cnn(-c5ccc(F)cc5)c4)c(C(=O)O)c3)C2)ccc1NS(=O)(=O)CCCc1ccc(Cl)cc1 [Compound 43] | 0.0489 µM (≈ 0.039 µg/mL)
O=C(O)c1cc(COC2CN(Cc3ccc(NS(=O)(=O)c4cnn(-c5ccc(F)cc5)c4)c(C(=O)O)c3)C2)ccc1NS(=O)(=O)c1cnn(-c2ccc(F)cc2)c1 [Compound 38] | 0.391 µM (≈ 0.321 µg/mL)
O=C(O)c1cc(CNC2CC(CNc3ccc(NS(=O)(=O)c4cnn(-c5ccc(F)cc5)c4)c(C(=O)O)c3)C2)ccc1NS(=O)(=O)c1cnn(-c2ccc(F)cc2)c1 (stereo not drawn) [Compound 25, cis-5-(((3-((3-carboxy-4-((1-(4-fluorophenyl)-1H-pyrazole)-4-sulfonamido)benzyl)amino)cyclobutyl)methyl)amino)-2-((1-(4-fluorophenyl)-1H-pyrazole)-4-sulfonamido)benzoic acid] | 0.155 µM (≈ 0.129 µg/mL)
O=C(O)c1cc(CN[C@H]2C[C@@H](COc3ccc(NS(=O)(=O)c4cnc(-c5ccc(Cl)cc5)s4)c(C(=O)O)c3)C2)ccc1NS(=O)(=O)CCc1ccc(Cl)cc1 [Compound 93] | 0.00611 µM (≈ 0.00517 µg/mL)
CS(=O)(=O)NC(=O)c1cc(OC2CN(Cc3ccc(NS(=O)(=O)c4cnn(-c5ccc(F)cc5)c4)c(C(=O)O)c3)C2)ccc1NS(=O)(=O)c1cnn(-c2ccc(F)cc2)c1 [Compound 52, 2-((1-(4-fluorophenyl)-1H-pyrazole)-4-sulfonamido)-5-((3-(4-((1-(4-fluorophenyl)-1H-pyrazole)-4-sulfonamido)-3-((methylsulfonyl)carbamoyl)phenoxy)azetidin-1-yl)methyl)benzoic acid] | 0.553 µM (≈ 0.488 µg/mL)
O=C(O)c1cc(OC[C@H]2CC[C@@H](COc3ccc(NS(=O)(=O)c4ccc(-c5ccc(Cl)cc5)s4)c(C(=O)O)c3)O2)ccc1NS(=O)(=O)c1ccc(-c2ccc(Cl)cc2)s1 [Compound 23] | 0.0346 µM (≈ 0.0317 µg/mL)
O=C(O)Cc1cc(CN2CC(Oc3ccc(NS(=O)(=O)c4cnn(-c5ccc(Cl)cc5)c4)c(C(=O)O)c3)C2)ccc1NS(=O)(=O)c1cnn(-c2ccc(Cl)cc2)c1 [Compound 2, 5-((1-(3-(carboxymethyl)-4-((1-(4-chlorophenyl)-1H-pyrazole)-4-sulfonamido)-benzyl)azetidin-3-yl)oxy)-2-((1-(4-chlorophenyl)-1H-pyrazole)-4-sulfonamido)benzoic acid] | 0.0692 µM (≈ 0.059 µg/mL)
O=C(O)c1cc(OC2CN(Cc3ccc(NS(=O)(=O)N4CCOC(c5ccc(F)cc5)C4)c(C(=O)O)c3)C2)ccc1NS(=O)(=O)CCc1ccc(F)cc1 (stereo not shown) [Compound 84] | 0.0691 µM (≈ 0.0544 µg/mL)
O=C(O)c1cc(OC2CN(Cc3ccc(NS(=O)(=O)N4CCOC(c5ccc(F)cc5)C4)c(C(=O)O)c3)C2)ccc1NS(=O)(=O)N1CCOC(CCO)C1 (stereo not shown) [Compound 47] | 1.57 µM (≈ 1.25 µg/mL)
O=C(O)c1cc(COC2CC(OCc3ccc(NS(=O)(=O)c4ccc(-c5ccc(Cl)cc5)cc4)c(C(=O)O)c3)C2)ccc1NS(=O)(=O)CCc1ccc(F)cc1 (stereo not shown) [Compound 18] | 0.0122 µM (≈ 0.01 µg/mL)
O=C(CCCc1ccc(Cl)cc1)Nc1ccc(OC2CN(Cc3ccc(NS(=O)(=O)c4cnn(-c5ccc(Cl)cc5)c4)c(C(=O)O)c3)C2)cc1C(=O)O [Compound 69] | 0.0245 µM (≈ 0.0191 µg/mL)
Cn1nc(-c2ccc(F)cc2)cc1S(=O)(=O)Nc1ccc(CN[C@H]2C[C@@H](COc3ccc(NS(=O)(=O)c4cnn(-c5ccc(Cl)cc5)c4)c(C(=O)O)c3)C2)cc1C(=O)O [Compound 91] | 0.0173 µM (≈ 0.015 µg/mL)
O=C(O)c1cc(COC2CC(OCc3ccc(NS(=O)(=O)c4ccc(-c5ccc(F)cc5)cc4)c(C(=O)O)c3)C2)ccc1NS(=O)(=O)CCc1ccc(Cl)cc1 (stereo not shown) [Compound 16] | < 0.0488 µM
O=C(O)c1cc(CNC2CC(CNc3ccc(NS(=O)(=O)c4cnn(-c5ccc(F)cc5)c4)c(C(=O)O)c3)C2)ccc1NS(=O)(=O)c1cnn(-c2ccc(Cl)cc2)c1 (stereo not shown) [Compound 29] | 0.0489 µM (≈ 0.0415 µg/mL)
CC1(Oc2ccc(NS(=O)(=O)N3CCOC(c4ccc(F)cc4)C3)c(C(=O)O)c2)CN(Cc2ccc(NS(=O)(=O)N3CCOC(c4ccc(F)cc4)C3)c(C(=O)O)c2)C1 (stereo not shown) [Compound 45] | 0.0978 µM (≈ 0.0839 µg/mL)
O=C(Cc1cccc(Cl)c1)Nc1ccc(OC2CN(Cc3ccc(NS(=O)(=O)c4cc(-c5ccc(F)cc5)ns4)c(C(=O)O)c3)C2)cc1C(=O)O [Compound 67] | 0.0245 µM (≈ 0.0184 µg/mL)
O=C(O)c1cc(OC2CN(Cc3ccc(NS(=O)(=O)c4ccc(-c5ccc(F)cc5)cc4)c(C(=O)O)c3)C2)ccc1NS(=O)(=O)CCc1ccc(F)cc1 [Compound 83] | 0.0346 µM (≈ 0.0269 µg/mL)
O=C(Cc1cccc(Cl)c1)Nc1ccc(OC2CN(Cc3ccc(NS(=O)(=O)c4cnn(-c5ccc(Cl)cc5)c4)c(C(=O)O)c3)C2)cc1C(=O)O [Compound 73] | 0.196 µM (≈ 0.147 µg/mL)

Same assay, conditions: lowest concentration giving >95% growth inhibition, CAMHB, 18-22 h

SMILES | MIC
O=C(O)c1cc(CNC2CC(COc3ccc(NS(=O)(=O)c4cnn(-c5ccc(Cl)cc5)c4)c(C(=O)O)c3)C2)ccc1NS(=O)(=O)c1cnn(-c2ccc(Cl)cc2)c1 (stereo not shown) [Compound 87, 5-(((1s, 3s)-3-((3-carboxy-4-((1-(4-chlorophenyl)-1H-pyrazole)-4-sulfonamido)benzyl)amino)cyclobutyl)methoxy)-2-((1-(4-chlorophenyl)-1H-pyrazole)-4-sulfonamido)benzoic acid] | 0.0245 µM (≈ 0.0212 µg/mL)
O=C(O)c1cc(COC2CC(OCc3ccc(NS(=O)(=O)c4cnn(-c5ccc(F)cc5)c4)c(C(=O)O)c3)C2)ccc1NS(=O)(=O)c1cnn(-c2ccc(F)cc2)c1 (stereo not shown) [Compound 13] | 0.196 µM (≈ 0.164 µg/mL)
